PubChem BioAssay (NCI)
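The compound was tested at five concentrations on cells cultured in 96-well plates, with a 48-hour exposure period. TGI: concentration producing complete growth inhibition.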

Columns and labels:
Test in all cases: NCI-60 cell line screen, 48 h
CAKI-1 renal = system: CAKI-1 renal
MCF7 breast = system: MCF7 breast
SF-539 CNS = system: SF-539 CNS
MOLT-4 leukemia = system: MOLT-4 leukemia
A549 NSCLC = system: A549 NSCLC
SW-620 colon = system: SW-620 colon
HCT-116 colon = system: HCT-116 colon
UACC-257 melanoma = system: UACC-257 melanoma
SK-OV-3 ovarian = system: SK-OV-3 ovarian
SK-MEL-2 melanoma = system: SK-MEL-2 melanoma
TK-10 renal = system: TK-10 renal
RXF 393 renal = system: RXF 393 renal
EKVX NSCLC = system: EKVX NSCLC
UACC-62 melanoma = system: UACC-62 melanoma
PC-3 prostate = system: PC-3 prostate
HT29 colon = system: HT29 colon
ACHN renal = system: ACHN renal
OVCAR-8 ovarian = system: OVCAR-8 ovarian
KM12 colon = system: KM12 colon
SNB-19 CNS = system: SNB-19 CNS
SK-MEL-28 melanoma = system: SK-MEL-28 melanoma
NCI-H522 lung = system: NCI-H522 lung
SK-MEL-5 melanoma = system: SK-MEL-5 melanoma
U251 CNS = system: U251 CNS
MDA-MB-435 = system: MDA-MB-435
SN12C renal = system: SN12C renal
MALME-3M melanoma = system: MALME-3M melanoma
SR leukemia = system: SR leukemia
786-0 renal = system: 786-0 renal
RPMI-8226 leukemia = system: RPMI-8226 leukemia
OVCAR-3 ovarian = system: OVCAR-3 ovarian
LOX IMVI melanoma = system: LOX IMVI melanoma
NCI/ADR-RES ovarian = system: NCI/ADR-RES ovarian
SNB-75 CNS = system: SNB-75 CNS
HCC-2998 colon = system: HCC-2998 colon
IGROV1 ovarian = system: IGROV1 ovarian
DU-145 prostate = system: DU-145 prostate
A498 renal = system: A498 renal
CCRF-CEM leukemia = system: CCRF-CEM leukemia
K-562 leukemia = system: K-562 leukemia
NCI-H23 lung = system: NCI-H23 lung
NCI-H226 lung = system: NCI-H226 lung
SF-295 CNS = system: SF-295 CNS
HOP-62 NSCLC = system: HOP-62 NSCLC
HCT-15 colon = system: HCT-15 colon
OVCAR-5 ovarian = system: OVCAR-5 ovarian
COLO 205 colon = system: COLO 205 colon
MDA-N = system: MDA-N
UO-31 renal = system: UO-31 renal
M14 melanoma = system: M14 melanoma
OVCAR-4 ovarian = system: OVCAR-4 ovarian
BT-549 breast = system: BT-549 breast
MDA-MB-231 breast = system: MDA-MB-231 breast
SF-268 CNS = system: SF-268 CNS

Question: Which results are given for `COC(=O)C([C@H]1CC[C@H](OCc2ccccc2)[C@@]1(O)COCc1ccccc1)C(C)(O)CCc1ccccc1` (some centres undefined)?
Answer: TGI (CAKI-1 renal): > 100 µM; TGI (MCF7 breast): 25.3 µM; TGI (SF-539 CNS): 29.1 µM; TGI (MOLT-4 leukemia): 19.7 µM; TGI (A549 NSCLC): 27.1 µM; TGI (SW-620 colon): 28.9 µM; TGI (HCT-116 colon): 24.2 µM; TGI (UACC-257 melanoma): 35.1 µM; TGI (SK-OV-3 ovarian): > 100 µM; TGI (SK-MEL-2 melanoma): 25.3 µM; TGI (TK-10 renal): 39.9 µM; TGI (RXF 393 renal): 25.9 µM; TGI (EKVX NSCLC): 38.2 µM; TGI (UACC-62 melanoma): 26.6 µM; TGI (PC-3 prostate): 16.3 µM; TGI (HT29 colon): 22.2 µM; TGI (ACHN renal): 29.2 µM; TGI (OVCAR-8 ovarian): 41.5 µM; TGI (KM12 colon): 16.4 µM; TGI (SNB-19 CNS): > 100 µM; TGI (SK-MEL-28 melanoma): 30.1 µM; TGI (NCI-H522 lung): 26.1 µM; TGI (SK-MEL-5 melanoma): 27.6 µM; TGI (U251 CNS): 27.2 µM; TGI (MDA-MB-435): 29.4 µM; TGI (SN12C renal): 16.2 µM; TGI (MALME-3M melanoma): 25.7 µM; TGI (SR leukemia): 26.4 µM; TGI (786-0 renal): 27.4 µM; TGI (RPMI-8226 leukemia): 43.3 µM; TGI (OVCAR-3 ovarian): 27.2 µM; TGI (LOX IMVI melanoma): 22.8 µM; TGI (NCI/ADR-RES ovarian): 26.5 µM; TGI (SNB-75 CNS): 19.7 µM; TGI (HCC-2998 colon): 33.2 µM; TGI (IGROV1 ovarian): 29.3 µM; TGI (DU-145 prostate): 72.7 µM; TGI (A498 renal): 28.6 µM; TGI (CCRF-CEM leukemia): 60.2 µM; TGI (K-562 leukemia): 35.5 µM; TGI (NCI-H23 lung): 37.8 µM; TGI (NCI-H226 lung): 26.6 µM; TGI (SF-295 CNS): 23.3 µM; TGI (HOP-62 NSCLC): 29.6 µM; TGI (HCT-15 colon): 37.4 µM; TGI (OVCAR-5 ovarian): 27 µM; TGI (COLO 205 colon): 25.8 µM; TGI (MDA-N): 26.6 µM; TGI (UO-31 renal): 23.7 µM; TGI (M14 melanoma): 22.9 µM; TGI (OVCAR-4 ovarian): 43.9 µM; TGI (BT-549 breast): 30.8 µM; TGI (MDA-MB-231 breast): 26.2 µM; TGI (SF-268 CNS): 22 µM
